Patent US20170001990A1 (Genentech, Inc., priority 2014, published 2017)

Target: Human recombinant carboxy-terminal his-tagged LDHA (amino acids 2-332) (Homo sapiens, UniProt P00338)
Experiment: LDHA enzyme inhibition assay (NADH fluorescence)
Conditions: LDHA IC50 (μM), 1 nM LDHA, NADH and pyruvate, stereochemistry of tested sample given

| IC50 | Structure (SMILES) |
| --- | --- |
| 0.006 µM | O=C1CC(c2ccsc2)(c2cccc(-c3ccncc3)n2)NC(=O)C1Sc1ccccc1Cl (stereo not shown) [Example 260, 6-([2,4′-bipyridin]-6-yl)-3-((2-chlorophenyl)thio)-6-(thiophen-3-yl)piperidine-2,4-dione] |
| 0.039 µM | O=C1CC(c2ccsc2)(c2cccc(-c3ccnc(N4CCOCC4)c3)n2)NC(=O)C1Sc1ccccc1Cl (stereo not shown) [Example 261, 3-((2-chlorophenyl)thio)-6-(2′-morpholino-[2,4′-bipyridin]-6-yl)-6-(thiophen-3-yl)piperidine-2,4-dione] |
| 0.086 µM | CCN(c1ccc(F)cc1)c1cccc(C2(c3ccsc3)CC(=O)C(Sc3ccccc3Cl)C(=O)N2)n1 (stereo not shown) [Example 263, 3-((2-chlorophenyl)thio)-6-(6-(ethyl(4-fluorophenyl)amino)pyridin-2-yl)-6-(thiophen-3-yl)piperidine-2,4-dione] |
| 0.077 µM | Cc1cc(Nc2cccc(C3(c4ccsc4)CC(=O)C(Sc4ccccc4Cl)C(=O)N3)n2)n(C)n1 (stereo not shown) [Example 264, 3-((2-chlorophenyl)thio)-6-(6-((1,3-dimethyl-1H-pyrazol-5-yl)amino)pyridin-2-yl)-6-(thiophen-3-yl)piperidine-2,4-dione] |
| 1.64 µM | O=C1CC(c2ccsc2)(c2cccc(CC3CCOCC3)n2)NC(=O)C1Sc1ccccc1Cl (stereo not shown) [Example 267, 3-((2-chlorophenyl)thio)-6-(6-((tetrahydro-2H-pyran-4-yl)methyl)pyridin-2-yl)-6-(thiophen-3-yl) piperidine-2,4-dione] |
| 0.073 µM | Cn1nccc1Nc1cccc(C2(c3ccsc3)CC(=O)C(Sc3ccccc3Cl)C(=O)N2)n1 (stereo not shown) [Example 269, 3-((2-chlorophenyl)thio)-6-(6-((1-methyl-1H-pyrazol-5-yl)amino)pyridin-2-yl)-6-(thiophen-3-yl)piperidine-2,4-dione] |
| 0.099 µM | Cn1ccc(Nc2cccc(C3(c4ccsc4)CC(=O)C(Sc4ccccc4Cl)C(=O)N3)n2)n1 (stereo not shown) [Example 270, 3-((2-chlorophenyl)thio)-6-(6-((1-methyl-1H-pyrazol-3-yl)amino)pyridin-2-yl)-6-(thiophen-3-yl)piperidine-2,4-dione] |
| 0.355 µM | Cn1cnc(Nc2cccc(C3(c4ccsc4)CC(=O)C(Sc4ccccc4Cl)C(=O)N3)n2)n1 (stereo not shown) [Example 271, 3-((2-chlorophenyl)thio)-6-(6-((1-methyl-1H-1,2,4-triazol-3-yl)amino)pyridin-2-yl)-6-(thiophen-3-yl) piperidine-2,4-dione] |
| 0.459 µM | Cc1cc(Nc2cccc(C3(c4ccsc4)CC(=O)C(Sc4ccccc4Cl)C(=O)N3)n2)nn1C (stereo not shown) [Example 272, 3-((2-chlorophenyl)thio)-6-(6-((1,5-dimethyl-1H-pyrazol-3-yl)amino)pyridin-2-yl)-6-(thiophen-3-yl) piperidine-2,4-dione] |
| 0.072 µM | COc1ccc(N(C)c2cccc(C3(c4ccsc4)CC(=O)C(Sc4ccccc4Cl)C(=O)N3)n2)cc1 (stereo not shown) [Example 273, 3-((2-chlorophenyl)thio)-6-(6-((4-methoxyphenyl) (methyl)amino)pyridin-2-yl)-6-(thiophen-3-yl) piperidine-2,4-dione] |
| 0.157 µM | COc1cccc(N(C)c2cccc(C3(c4ccsc4)CC(=O)C(Sc4ccccc4Cl)C(=O)N3)n2)c1 (stereo not shown) [Example 274, 3-((2-chlorophenyl)thio)-6-(6-((3-methoxyphenyl) (methyl)amino)pyridin-2-yl)-6-(thiophen-3-yl) piperidine-2,4-dione] |
| 0.233 µM | CN(c1cccc(C(F)(F)F)c1)c1cccc(C2(c3ccsc3)CC(=O)C(Sc3ccccc3Cl)C(=O)N2)n1 (stereo not shown) [Example 275, 3-((2-chlorophenyl)thio)-6-(6-(methyl(3-(trifluoromethyl)phenyl)amino)pyridin-2-yl)-6-(thiophen-3-yl)piperidine-2,4-dione] |
| 0.175 µM | Cc1cnc(Nc2cccc(C3(c4ccsc4)CC(=O)C(Sc4ccccc4Cl)C(=O)N3)n2)[nH]1 (stereo not shown) [Example 276, 3-((2-chlorophenyl)thio)-6-(6-((5-methyl-1H-imidazol-2-yl)amino)pyridin-2-yl)-6-(thiophen-3-yl)piperidine-2,4-dione] |
| 0.337 µM | Cn1ccnc1Nc1cccc(C2(c3ccsc3)CC(=O)C(Sc3ccccc3Cl)C(=O)N2)n1 (stereo not shown) [Example 277, 3-((2-chlorophenyl)thio)-6-(6-((1-methyl-1H-imidazol-2-yl)amino)pyridin-2-yl)-6-(thiophen-3-yl)piperidine-2,4-dione] |
| 0.339 µM | Cc1cnc(N)n1-c1cccc(C2(c3ccsc3)CC(=O)C(Sc3ccccc3Cl)C(=O)N2)n1 (stereo not shown) [Example 278, 6-(6-(2-amino-5-methyl-1H-imidazol-1-yl)pyridin-2-yl)-3-((2-chloro-phenyl)thio)-6-(thiophen-3-yl)piperidine-2,4-dione] |
| 0.272 µM | CN(c1ccc(Cl)cc1)c1cccc(C2(c3ccsc3)CC(=O)C(Sc3ccccc3Cl)C(=O)N2)n1 (stereo not shown) [Example 279, 6-(6-((4-chlorophenyl) (methyl)amino)pyridin-2-yl)-3-((2-chlorophenyl)thio)-6-(thiophen-3-yl) piperidine-2,4-dione] |
| 0.057 µM | O=C1CC(c2ccsc2)(c2cccc(NS(=O)(=O)N3CCC3)n2)NC(=O)C1Sc1ccccc1Cl (stereo not shown) [Example 286, N-(6-(5-((2-chlorophenyl)thio)-4,6-dioxo-2-(thiophen-3-yl)piperidin-2-yl)pyridin-2-yl)azetidine-1-sulfonamide] |

| IC50 | Structure (SMILES) |
| --- | --- |
| 0.01 µM | Cc1csc(Nc2cccc(C3(c4ccsc4)CC(=O)C(Sc4ccccc4Cl)C(=O)N3)n2)n1 (stereo not shown) [Example 287, 3-((2-chlorophenyl)thio)-6-(6-((4-methylthiazol-2-yl)amino)pyridin-2-yl)-6-(thiophen-3-yl)piperidine-2,4-dione] |
| 0.141 µM | Cc1cnc(Nc2cccc(C3(c4ccsc4)CC(=O)C(Sc4ccccc4Cl)C(=O)N3)n2)s1 (stereo not shown) [Example 288, 3-((2-chlorophenyl)thio)-6-(6-((5-methylthiazol-2-yl)amino)pyridin-2-yl)-6-(thiophen-3-yl)piperidine-2,4-dione] |
| 0.017 µM | O=C1CC(c2ccsc2)(c2cccc(Nc3cccc(CO)c3)n2)NC(=O)C1Sc1ccccc1Cl (stereo not shown) [Example 290] |
| 0.081 µM | O=C1CC(c2ccsc2)(c2cccc(Nc3ccc(F)cc3)n2)NC(=O)C1Oc1ccccc1Cl (stereo not shown) [Example 295, 3-(2-chlorophenoxy)-6-[6-(4-fluoroanilino)-2-pyridyl]-6-(3-thienyl)piperidine-2,4-dione] |
| 0.039 µM | O=C1CC(c2ccsc2)(c2cccc(N[C@H](CO)c3ccc(F)c(Cl)c3)n2)NC(=O)C1Sc1ccccc1Cl (stereo partly drawn) [Example 296, 6-(6-(((S)-1-(3-chloro-4-fluorophenyl)-2-hydroxy-ethyl)amino)pyridin-2-yl)-3-((2-chlorophenyl)thio)-6-(thiophen-3-yl) piperidine-2,4-dione] |
| 0.149 µM | CC[C@@H](Nc1cccc(C2(c3ccsc3)CC(=O)C(Sc3ccccc3Cl)C(=O)N2)n1)c1ccc(F)c(Cl)c1 (stereo partly drawn) [Example 297, 6-(6-(((R)-1-(3-chloro-4-fluorophenyl)propyl)amino)pyridin-2-yl)-3-((2-chlorophenyl)thio)-6-(thiophen-3-yl)piperidine-2,4-dione] |
| 0.144 µM | O=C1CC(c2ccsc2)(c2cccc(OCc3ccc(F)cc3)n2)NC(=O)C1Sc1ccccc1Cl (stereo not shown) [Example 300, 3-((2-chlorophenyl)thio)-6-(6-((4-fluorobenzyl)oxy)pyridin-2-yl)-6-(thiophen-3-yl)piperidine-2,4-dione] |
| 0.092 µM | CC(Oc1cccc(C2(c3ccsc3)CC(=O)C(Sc3ccccc3Cl)C(=O)N2)n1)c1ccc(F)cc1 (stereo not shown) [Example 301] |
| 0.021 µM | CCC(Nc1cccc(C2(c3ccsc3)CC(=O)C(Sc3ccccc3Cl)C(=O)N2)n1)c1ccc(F)cc1 (stereo not shown) [Example 304, 3-((2-chlorophenyl)thio)-6-(6-((1-(4-fluoro-phenyl)propyl)amino)pyridin-2-yl)-6-(thiophen-3-yl)piperidine-2,4-dione] |
| 0.025 µM | CCC(Oc1cccc(C2(c3ccsc3)CC(=O)C(Sc3ccccc3Cl)C(=O)N2)n1)c1ccc(F)cc1 (stereo not shown) [Example 305] |
| 0.129 µM | O=C1CC(c2ccsc2)(c2cccc(OC3CCC(F)(F)CC3)n2)NC(=O)C1Sc1ccccc1Cl (stereo not shown) [Example 306, 3-((2-chlorophenyl)thio)-6-(6-((4,4-difluoro-cyclohexyl)oxy)pyridin-2-yl)-6-(thiophen-3-yl)piperidine-2,4-dione] |
| 0.095 µM | CC(O)c1cccc(Nc2cccc(C3(c4ccsc4)CC(=O)C(Sc4ccccc4Cl)C(=O)N3)n2)c1 (stereo not shown) [Example 307, 3-((2-chlorophenyl)thio)-6-(6-((3-(1-hydroxy-ethyl)phenyl)amino)pyridin-2-yl)-6-(thiophen-3-yl)piperidine-2,4-dione] |
| 0.825 µM | O=C1CC(c2ccsc2)(c2cccc(OCC3CCCCC3)n2)NC(=O)C1Sc1ccccc1Cl (stereo not shown) [Example 308, 3-((2-chlorophenyl)thio)-6-(6-(cyclohexylmethoxy)pyridin-2-yl)-6-(thiophen-3-yl)piperidine-2,4-dione] |
| 0.408 µM | CN(c1cccc(CO)c1)c1cccc(C2(c3ccsc3)CC(=O)C(Sc3ccccc3Cl)C(=O)N2)n1 (stereo not shown) [Example 309, 3-((2-chlorophenyl)thio)-6-(6-((3-(hydroxymethyl)phenyl)(methyl)amino)pyridin-2-yl)-6-(thiophen-3-yl)piperidine-2,4-dione] |
| 0.365 µM | CN(c1cccc(CO)c1)c1cccc(C2(c3ccsc3)CC(=O)C(Sc3ccccc3Cl)C(=O)N2)n1 (stereo not shown) [Example 310, 3-((2-chlorophenyl)thio)-6-(6-((3-(hydroxymethyl)phenyl)(methyl)amino)pyridin-2-yl)-6-(thiophen-3-yl)piperidine-2,4-dione] |
| 0.59 µM | CC(Oc1cccc(C2(c3ccsc3)CC(=O)C(Sc3ccccc3Cl)C(=O)N2)n1)c1ccc(Cl)cc1 (stereo not shown) [Example 311, 6-(6-(1-(4-chlorophenyl)ethoxy)pyridin-2-yl)-3-((2-chlorophenyl)thio)-6-(thiophen-3-yl)piperidine-2,4-dione] |
| 0.119 µM | CC(Oc1cccc(C2(c3ccsc3)CC(=O)C(Sc3ccccc3Cl)C(=O)N2)n1)c1cccc(F)c1 (stereo not shown) [Example 312, 3-((2-chlorophenyl)thio)-6-(6-(1-(3-fluorophenyl)ethoxy)pyridin-2-yl)-6-(thiophen-3-yl)piperidine-2,4-dione] |
